In BigSolDB 2.1:

OC[C@@H](O)[C@@H](O[C@H]1O[C@H](CO)[C@@H](O)[C@H](O)[C@H]1O)[C@H](O)[C@@H](O)CO
solubility (mole fraction)
Details | 298.15 K | 303.15 K | 308.15 K | 313.15 K | 318.15 K | 323.15 K
in DMF | 0.00761 | 0.00819 | 0.00922 | 0.0109 | 0.0128 | 0.0153
in ethanol | 3.6e-05 | 4.4e-05 | 5.2e-05 | 6.2e-05 | 7.4e-05 | 9.4e-05
in isopropanol | 1.9e-05 | 2.3e-05 | 2.7e-05 | 3e-05 | 3.8e-05 | 5.1e-05
in methanol | 0.00029 | 0.000337 | 0.000393 | 0.000453 | 0.000552 | 0.000706
in water | 0.0616 | 0.0671 | 0.0786 | 0.0972 | 0.111 | 0.125
